Experimental data reported in PubChem BioAssay (NCI).
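How tested: cells in 96-well plates exposed to compound for 48 hours at five concentrations. GI50 marks 50% less growth. TGI marks complete inhibition of growth.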

Tests used:
Test in all cases: NCI-60 cell line screen, 48 h
CAKI-1 renal = system: CAKI-1 renal
CCRF-CEM leukemia = system: CCRF-CEM leukemia
HT29 colon = system: HT29 colon
IGROV1 ovarian = system: IGROV1 ovarian
NCI-H522 lung = system: NCI-H522 lung
NCI/ADR-RES ovarian = system: NCI/ADR-RES ovarian
OVCAR-4 ovarian = system: OVCAR-4 ovarian
SW-620 colon = system: SW-620 colon
UACC-62 melanoma = system: UACC-62 melanoma
NCI-H226 lung = system: NCI-H226 lung

Row | SMILES | GI50 (CAKI-1 renal) [nM] | TGI (CAKI-1 renal) [µM] | GI50 (CCRF-CEM leukemia) [nM] | TGI (CCRF-CEM leukemia) [µM] | GI50 (HT29 colon) [nM] | TGI (HT29 colon) [µM] | GI50 (IGROV1 ovarian) [µM] | TGI (IGROV1 ovarian) [µM] | GI50 (NCI-H522 lung) [nM] | TGI (NCI-H522 lung) [µM] | GI50 (NCI/ADR-RES ovarian) [µM] | TGI (NCI/ADR-RES ovarian) [µM] | GI50 (OVCAR-4 ovarian) [nM] | TGI (OVCAR-4 ovarian) [µM] | GI50 (SW-620 colon) [µM] | TGI (SW-620 colon) [µM] | GI50 (UACC-62 melanoma) [nM] | TGI (UACC-62 melanoma) [µM] | TGI (NCI-H226 lung) [µM] | GI50 (NCI-H226 lung) [nM]
1 | COCCOc1ccc(-c2nc3ccc(-c4nc5ccc(N6CCN(C)CC6)cc5[nH]4)cc3[nH]2)cc1 | 2250 | > 100 | 1020 | > 100 | 579 | > 100 | 1.71 | 4.81 | 341 | 2.36 | > 100 | > 100 | 313 | 3 | 0.9 | 4.59 | 365 | 2.02 |  | 
2 | O=c1c(-c2ccccc2)c2oc(c1-c1ccccc1)CSCc1cccc(c1)CSC2 |  | > 100 |  | > 100 |  | > 100 |  | > 100 |  | > 100 |  |  |  | > 100 |  | > 100 |  | > 100 | > 100 | 
3 | C/C(CCn1[nH]c(=O)ccc1=O)=N\NC(=O)C(=O)NN |  | > 100 |  | > 100 |  | > 100 |  | > 100 |  | > 100 |  |  |  | > 100 |  | > 100 |  | > 100 | > 100 | 
4 | COc1nc(NC2OC(COC(C)=O)C(OC(C)=O)C(OC(C)=O)C2OC(C)=O)c2c(OC(C)=O)cc(=O)oc2n1 (configuration not stated) |  | > 100 |  | > 100 |  | > 100 |  | > 100 |  |  |  |  |  | > 100 |  | > 100 |  | > 100 | > 100 | 
5 | Cc1ccc(/C=C/C(=O)CCN(C)C)cc1 |  | 26.8 |  | 72.4 |  | 33.4 |  | 37.1 |  |  |  |  |  | 30.4 |  | 30.2 |  | 28.2 | 49.4 | 
6 | CC(=O)NNc1nc(C)c(C(=O)/C=C/c2ccc(NC(C)=O)cc2)s1 |  | > 100 |  | > 100 |  | > 100 |  | > 100 |  | > 100 |  |  |  |  |  | > 100 |  | > 100 |  | 
7 | O=C(Oc1ccc(Cl)cc1)c1ccccc1Nc1ccnc(C(F)(F)F)c1 | 2320 | 4.67 | 4940 | 52.8 |  |  | 15.3 | > 100 | 4220 | 52.2 | 16.2 | 49.5 |  |  | 6.66 | 63.3 | 2610 | 8.44 | 16.8 | 2940
8 | CC(=O)O/N=C(/C)c1ccccc1O |  | > 100 |  | > 100 |  | > 100 |  | > 100 |  | > 100 |  |  |  | > 100 |  | > 100 |  | > 100 | > 100 | 
9 | Oc1[nH]c2ccccc2c1N=Nc1nc(-c2ccc(Br)cc2)cs1 |  | 39.9 |  | 61.8 |  | 32.9 |  | 23.1 |  | > 100 |  | 44.1 |  | 38.9 |  | > 100 |  | 63.2 |  | 
10 | S=c1sc2c(n1-c1ccccc1)NC=NC2S (configuration not stated) |  | > 100 |  | > 100 |  | > 100 |  | > 100 |  | > 100 |  |  |  | > 100 |  | > 100 |  | > 100 | > 100 | 
